Source: a melting point compilation (Tetko et al.; mined from patent text by program, amines drawn as free bases though some values may be those of a salt)

Compound	melting point
CNc1nnc(S[Si](C)(C)C)s1	80 to 82 °C
COC(=O)c1cn(-c2ccc(C3=NOC(NC(C)=O)C3)cc2F)nn1 (stereo unspecified)	221 °C
Cc1cc(C(O)(C(F)(F)F)C(F)(F)F)cc(C)c1NCCCN	130 to 133 °C
Fc1ccc(Cn2c(NC3CCN(CCc4cccs4)CC3)nc3ccccc32)cc1	152 °C
C#CCCCOc1ccc(/C=C/C(=O)Nc2ccccc2C(=O)O)cc1OC	166 to 168 °C
COC(COc1ccc2oc(C(=O)O)c(C)c2c1)OC	74 °C
Cc1c(-c2ccccc2)sc2nc(NCCO)[nH]c(=O)c12	227 to 229 °C
CCOC(=O)C(=Nc1ccccc1)c1cccn1C	69 to 71 °C
Cc1c(NC(=O)OCc2ccccc2)cccc1C(C[N+](=O)[O-])c1c[nH]c2cc(OC3CCOC3)ccc12 (stereo unspecified)	130 °C
Cc1nc(=O)[nH]c2cc3c(cc12)OCO3	310 to 312 °C
Nc1nc2c(ncn2COCCOC(=O)CCC(=O)O)c(=O)[nH]1	203 to 207 °C
COc1cccc2c1CCCC2(O)CN (stereo unspecified)	129 to 130 °C
CCN(C)c1nc2cc(NC(=O)c3c(C(=O)N4CCC4)cnn3C)ccn2n1	229 to 232 °C
Cc1nc(NCCN2CCOCC2)c2nc(-c3ccccc3)cc-2[nH]1	> 280 °C
Cc1c(O)ccc(NC2=CC(=O)C(N)=CC2=O)c1C	320 °C
COc1ccc2c(c1)CCN(C#N)C2c1cc(OC)c(OC)c(OC)c1 (single isomer, unassigned; (-))	132 to 134 °C
Cc1cccc(COc2cccc(OCc3ccc4cc(F)c(F)cc4n3)c2)c1OCC(=O)O	94 to 95 °C
Cc1nn(C)c(-c2ccccc2)c1NC1=NCCN1	232 to 234 °C
CC(C)(C)NC(=O)[C@@H]1C[C@@H]2CCCC[C@@H]2CN1C[C@@H](O)[C@@H](N)Cc1ccccc1	175 to 176 °C
O=C(O)CCC(=O)c1ccc(-c2ccc(Cl)c(Cl)c2)cc1	154 to 156 °C
NNC(=O)c1ncc2[nH]c3ccccc3c2n1	> 340 °C
C=CCOC(=O)CC(=O)NC1C(=O)N2C1SC(C)(C)C2C(=O)OCC=C (stereo unspecified)	59 to 60 °C
CCCc1nc2nccc(C)c2[nH]1	110 to 112 °C
CCc1ccc2ccc(=O)[nH]c2n1	133 to 134 °C
CCOC(=O)c1ccc([N+](=O)[O-])cc1F	70 to 73 °C
O=C(CCC#Cc1cccc(CF)n1)Nc1ccc(F)cc1	110 °C
COc1ccc(CNC(=O)c2ccc3c(c2)c(=O)n(Cc2ccccc2)c(=O)n3C)cc1	191 °C

Compound	melting point
CCOC(=O)c1c2n(c3c(Cl)c(N4CCC(N(C)C)C4)c(F)cc3c1=O)C(C)S2 (stereo unspecified)	131 to 133 °C
CC(C)c1ccc(C(=O)O)c(C2=NC(=O)C(C)(C(C)C)N2)n1 (stereo unspecified)	131 to 134 °C
CCOC(=O)/C=C/c1ccc(OCCc2nc(-c3cccc(C)c3)oc2C)cc1	90 to 91 °C
CC1CCCC=C1c1ccc(C(=O)O)cc1 (stereo unspecified)	146 to 147 °C
CC(C)(Oc1ccc(C#N)cc1)C(O)=Cc1ccncn1	115 to 117 °C
COc1ccc(C(Sc2c(N)ccc3ccccc23)C(O)C(=O)O)cc1 (stereo unspecified)	143 to 145 °C
Cc1c2n(c3ccccc13)C(=O)C(Cn1ccnc1C)CC2 (stereo unspecified)	120 to 121 °C
CCCCCCCCCCCCCCCCOCC(CNS(=O)(=O)CCCCl)COC (stereo unspecified)	44 to 46.5 °C
COc1ccc2[nH]cc([C@H]3CC[C@@H](N4CCN(c5cccc6[nH]ccc56)CC4)CC3)c2c1	105 to 108 °C
ClCCCCCCCCOc1ccc2ccccc2c1	35 °C
CC(C)Oc1cccc(NC(=O)OC(C)(C)C)c1	79 to 81 °C
COC(=O)c1cc(C#CCOC2CCCCO2)c(C(F)(F)F)cc1N (stereo unspecified)	88 °C
c1cc(C2=NOCCS2)ccn1	80 to 82 °C
Cc1oc(-c2ccc(Cl)cc2)nc1CO	130 to 131 °C
CNCC(O)c1cccc(F)c1 (stereo unspecified)	63 to 65 °C
Cc1ccc(F)c(-c2ccc(S(=O)(=O)N3c4ccccc4CC3C(=O)NCCOc3ccc(CC(=O)O)cc3)cc2)c1 (stereo unspecified)	82 to 85 °C
Cc1nc2cccc(OCc3ccccc3)c2[nH]1	119 to 121 °C
O=C(Nc1c[nH]nc1C(=O)NCCC(F)(F)F)c1ccccn1	241 to 243 °C
O=C(Nc1cc(C(=O)NCCc2ccccc2)ccc1O)C(=O)Nc1cc(Cl)cc(Cl)c1O	265 °C
O=C(Nc1ccc(C(=O)c2ccccc2)cc1)c1cc(Cl)cc(Cl)c1	219 to 220 °C
NC1Cc2ccc(-c3ccc(=O)[nH]n3)cc2C1 (stereo unspecified)	228 to 229 °C
CN(C(=O)C(F)(F)F)C1Cc2ccc(C(=O)Cn3cnc4cc(-c5ccc(Cl)cc5)sc4c3=O)cc2C1 (stereo unspecified)	245 to 248 °C
CCOC(=O)c1cnn2c1c(Cl)nc1ccccc12	105 to 106 °C
CN1C(=O)CC2(CC1=O)c1ccccc1Oc1ccccc12	148 to 149 °C
CNc1nc(-c2cccc(NC(=O)c3cccc(O)c3)c2)c2cc(OC)c(OC)cc2n1	265 to 267 °C
C#CC(=O)NCCCCC	59 to 60.2 °C

Further lines, results first:

melting point	Compound
142 to 145 °C	COCCOc1cc2ncc(C#N)c(Cl)c2cc1OCc1ccccc1
154 °C	N#CCC(O)(c1ccc(Br)cc1)c1ccc(-c2ccc(Br)cc2)cc1 (stereo unspecified)
112 to 113 °C	COC(=O)CCC(=O)Nc1cccc(OCc2cc3ccccc3o2)c1
94 to 97 °C	COc1ccc(OC(=O)CN2CCN(Cc3cc(OC)c(OC)c(OC)c3)CC2)cc1
86 to 88 °C	NCC(O)C1COc2ccccc2O1 (stereo unspecified)
146 to 148 °C	CCN(CC)CC1CCCCN1CCNC(=O)N1c2ccccc2NC(=O)c2cccnc21 (stereo unspecified)
176 to 179 °C	CC(c1oc2ccccc2c(=O)c1-c1cccc(F)c1)n1nc(-c2cccc(OC(F)F)c2)c2c(N)ncnc21 (stereo unspecified)
54 °C	NCCc1ccc(-n2nc(C(F)(F)F)cc2C(F)(F)F)cc1
93 to 96 °C	COc1cc(OC)nc(Oc2cc([N+](=O)[O-])ccc2C(=O)O)n1
304 °C	O=c1[nH]cnc2sc(Br)cc12
60 °C	Cc1cc(C)cc(-c2cnn3c(-c4cccc(-c5nnn(CCN6CCCC6)n5)c4)ccnc23)c1
174 to 176 °C	COc1ccc(C=NO)c(Cl)c1O
176 to 178 °C	C=CCN1C(=O)C2CC(c3ccc(N)cc3)(C2)C1=O
139 to 140 °C	CCCCN1C(=O)c2cnc(-c3ccccc3)nc2N(C(=O)CCl)c2ccccc21
175 to 176 °C	CSc1coc2cc(NS(C)(=O)=O)c(Oc3ccccc3)cc2c1=O
170 to 173 °C	O=C(O)CC(F)C(=O)c1ccc(-c2ccc(Cl)cc2)cc1 (stereo unspecified)
156 to 158 °C	COc1cc(C2=CCN(S(=O)(=O)C(C)(C)C(=O)NO)CC2)ccc1-c1ccccc1
146 to 147 °C	O=C(O)[C@@H]1C[C@@H](c2ccccc2)CN1C(=O)c1ccccc1Br
71 to 72 °C	COc1cccc(CN2CCc3cc(OCc4ccccc4)c(OC)cc3C2)c1
222 to 224 °C	COC(=O)Cn1c(C(=O)NC(N)=S)cc2cc(C)ccc21
144 to 182 °C	COCCCn1nnnc1-c1cc(-c2cccc(C(F)(F)F)c2)c(O)cc1O
126 to 127 °C	COC(=O)C(Cc1ccc(OCCc2nc(-c3ccccc3)oc2C)cc1)C(=O)O (stereo unspecified)
148 to 154 °C	CC(C)(C)c1cc(C(C)(C)c2cc(C(C)(C)C)c(O)c(C(C)(C)C)c2)cc(C(C)(C)C)c1O
190 to 191 °C	CCS(=O)(=O)c1nn(-c2ccccc2)c(=O)c2c(N)scc12

melting point	Compound
153 to 155 °C	COc1cc(C)nc(NC(=O)NS(=O)(=O)c2ccccc2C(O)CF)n1 (stereo unspecified)
137 to 140 °C	Cc1ccc(F)cc1C(=O)Nc1ccc(C(=O)N2Cc3ccnn3Cc3ccccc32)c(Cl)c1
95 to 97 °C	CCOC(=O)C(NC(=O)CI)C(=O)OCC
140 to 141 °C	Clc1ccccc1CSc1nnc(-c2ccc3c(c2)CCO3)o1
145 °C	CCOC(=O)C1=C(COCCNC(=O)N2CCNC2=O)NC(C)=C(C(=O)OC)C1c1ccccc1Cl (stereo unspecified)
84 to 86 °C	CC(=O)N[C@@H](Cc1ccccc1)C[C@H](O)[C@H](Cc1ccccc1)N(Cc1ccccc1)Cc1ccccc1
267 to 271 °C	O=C1Cn2c(c(Cl)c3ccccc32)-c2cc(Cl)ccc2N1
242 to 243 °C	CCc1nc2c(N)nc3cc(OCCCOc4ccc5c(c4)nc(N)c4nc(CC)sc45)ccc3c2s1
57 to 58.5 °C	COc1cc(C=CN(C)C)ccc1[N+](=O)[O-]
79 to 80 °C	OCCCCCCCCCCCCCCCCc1c[nH]c2ccccc12
200 to 202 °C	CCCCNC(=O)Nc1ccc(N2CCCC2)cc1C(=O)NCC1CCN(C(c2ccccc2)c2ccccc2)CC1
101 to 103 °C	COc1ccc(CNc2nnc(-c3ccc(C(F)(F)F)cc3)cc2C(F)(F)F)cc1
82 to 84 °C	C[N+](C)([O-])c1ccc(/C=C/c2c(F)cccc2Cl)cc1
110 to 113 °C	CN(Cc1sc2c(=O)c(C(=O)NCc3ccc(Cl)cc3)cn(C)c2c1COCC[Si](C)(C)C)C[C@@H](O)c1ccco1
187 to 189 °C	COc1cn(-c2ccc(-n3cccn3)cc2F)nc(C(=O)N(C)OC)c1=O
28 °C	C=C(C)c1ccc(C(C)(c2ccc(C(=C)C)cc2)c2ccc(C(=C)C)cc2)cc1
197 to 200 °C	Cc1cc(Cl)nnc1-c1ccc(Br)cc1
104 °C	COc1ccc(C(=O)COc2ccccc2Br)cc1
160 °C	COc1ccc(-c2cc(=O)c3c(OCC4=COC(C)(C)O4)cc(OCC4=COC(C)(C)O4)cc3o2)cc1O
196 to 197 °C	Cc1nnc(-c2ccnc(Nc3ccccn3)c2)o1
135 to 136 °C	O=C(O)c1c(CN2CCC(c3ccccc3)(c3ccccc3)CC2)ncn1Cc1ccc(Cl)cc1
100 to 102 °C	CCCCC[C@H]1CC[C@H](CCc2ccc(O)c(C#N)c2C#N)CC1
162 °C	COC(=O)c1ccc(C(=O)C2=C(C)C(=O)c3ccccc3C2=O)cc1
119 to 120 °C	C/C(=C\c1ccc(C(=O)OC(C)C)cc1)c1ccc2c(c1)C(C)(C)CCC2(C)C
